Experimental data from US9629843B2, “MTOR modulators and uses thereof” (The Regents of the University of California, priority 2008, dated 2017).
Entries after “also recorded” stand apart in the source; their conditions may differ.

Experiments:
[1] = test system: Akt substrates (GSK3, TSC2, FoxO1/O3a) in L6 myotubes; test: Phosphorylation of Akt substrates in insulin stimulated L6 myotubes; format: cell-based; conditions: FIG. 6
[2] = test system: Akt phosphorylation (S473, T308) in L6 myotubes; test: Akt phosphorylation in insulin stimulated L6 myotubes (immunoblot); format: cell-based; conditions: 100 nM insulin, FIG. 3
Experimental: L6 myoblasts were grown typically grown in DMEM supplemented with about 10% FBS, glutamine and penicillin/streptomycin. Confluent L6 myoblasts were differentiated into mytubes by culturing them for approximately 5 days in media containing about 2% FBS. L6 myotubes were maintained in media containing approximately 2% FBS until use.
In order to compare the effect of TORKinibs and PIK-90 on Akt phosphorylation, L6 myotubes were serum starved overnight and incubated with inhibitors or about 0.1% DMSO for approximately 30 minutes prior to stimulation with insulin (e.g. 100 nM) for about 10 minutes. Cells were lysed by scraping into ice cold lysis buffer (generally: 300 mM NaCl, 50 mM Tris pH 7.5, 5 mM EDTA, 1% TRITON™ X-100, 0.02% NaN3, 20 nM microcystin, Sigma phosphatase inhibitor cocktails 1 and 2, Roche protease inhibitor cocktail and 2 mM PMSF). After contacting cells with lysis buffer, the solution was briefly sonicated. Lysates were cleared by centrifugation, resolved by SDS-PAGE, transferred to nitrocellulose and immunoblotted using antibodies to phospho-Akt S473, phospho-Akt T308, Akt, and β-actin (Cell Signaling Technologies).

p70S6K phosphorylation = p70S6K phosphorylation in mpkCCD cells; format: cell-based
[3] = test system: PI3K signaling (PIP3 accumulation); test: PIP3 accumulation in p190 cells by confocal microscopy; format: cell-based; conditions: 20 and 200 nM, 4 hr; FIG. 38C
[4] = test system: Akt phosphorylation (S473, T308) in MEFs; test: Akt phosphorylation in wild-type and SIN1−/− mouse embryonic fibroblasts (immunoblot); format: cell-based
Experimental: Wild-type and SIN1−/− primary mouse embryonic fibroblasts (MEFs) were grown in DMEM supplemented with about 10% FBS, glutamine and penicillin/streptomycin. MEFs were treated with TORKinib at about 2.5, 0.63, and 0.16 uM; rapamycin at approximately 15 nM; or PIK-90 at 625 nM for 30 minutes prior to insulin stimulation (e.g. 100 nM) for 10 minutes. Cells were lysed by scraping into ice cold lysis buffer (typically 300 mM NaCl, 50 mM Tris pH 7.5, 5 mM EDTA, 1% TRITON™ X-100, 0.02% NaN3, 20 nM microcystin, Sigma phosphatase inhibitor cocktails 1 and 2, Roche protease inhibitor cocktail and 2 mM PMSF). After contacting cells with lysis buffer, the solution was briefly sonicated. Lysates were cleared by centrifugation, resolved by SDS-PAGE, transferred to nitrocellulose and immunoblotted using antibodies to phospho-Akt S473, phospho-Akt T308, Akt, and β-actin (Cell Signaling Technologies).

Tolerability in mice = format: in vivo; conditions: 10, 30 or 100 mg/kg, four times or twice daily, p.o.
[5] = test system: cap-dependent translation; test: Cap-dependent translation, m7GTP affinity, p190 cells; format: cell-based; conditions: IM at 5 μM; FIG. 38D
[6] = test system: Akt-S473 and S6 phosphorylation in T cells; test: Phosflow of anti-CD3 stimulated murine splenocytes; format: cell-based
[7] = test system: mTORC2/AKT and mTORC1 signaling; test: mTORC2/AKT and mTORC1 signaling in p190 cells (western blot); format: cell-based; conditions: FIGS. 38A-38B
Experimental: Western blots of p190 cells treated for 1.5 hr (a) or 3 hr (b) with indicated inhibitors are depicted in FIG. 38A and FIG. 38B. […] Clinically achievable concentrations of IM (1.0 μM) and DA (100 nM) were used for the combination treatments. See also FIGS. 40A-40B. Activation of PI3K was quantified in cells by signal pixel intensity and localized area of PIP3 accumulation by confocal microscopy, as depicted in FIG. 38C. […] A minimum of 250 cells was quantified from 2 separate images. […] Representative images depict PIP3 accumulation, nuclear content (DAPI stain) merged onto DIC images (13.5 μm scale bar). […] Autophagy (LC3 puncta accumulation), loss of proliferation (EdU accumulation), and distinct localization patterns of Foxo1 were assessed by confocal microscopy and representative cells were magnified for clarity. Cytoplasmic localization of Foxo1 corresponds to AKT activation, whereas nuclear accumulation signifies AKT inhibition.

[8] = Pharmacokinetics of PP242; conditions: in vivo
[9] = test system: ENaC-dependent Na+ current; test: ENaC-dependent Na+ transport in mpkCCD cells
4EBP1 binding to eIF-4E = test: m7GTP cap pull-down assay in L6 myotubes; format: cell-based; conditions: insulin stimulated L6 myotubes; FIG. 10
[10] = test system: S6K, S6, 4EBP1 phosphorylation in L6 myotubes; test: Phosphorylation of S6K, S6 and 4EBP1 in insulin stimulated L6 myotubes; format: cell-based
[11] = test system: Akt, S6, 4EBP1 phosphorylation in tissues; test: In vivo effect on insulin signaling in fat, skeletal muscle and liver of mice; parameters: species or system C57BL/6 mice
[12] = test system: p70S6K, 4EBP1 phosphorylation in MEFs; test: Phosphorylation of 70S6K and 4EBP1 in mouse embryonic fibroblasts; format: cell-based; conditions: wild-type and SIN1−/− MEFs; FIG. 11
Experimental: Wild-type and SIN1−/− primary mouse embryonic fibroblasts (MEFs) were grown in DMEM supplemented with about 10% FBS, glutamine and penicillin/streptomycin. MEFs were treated with TORKinib at approximately 2.5, 0.63, and 0.16 uM; rapamycin at about 15 nM; or PIK-90 at about 625 nM for approximately 30 minutes prior to insulin stimulation (e.g. 100 nM) for about 10 minutes. Cells were lysed by scraping into ice cold lysis buffer (generally: 300 mM NaCl, 50 mM Tris pH 7.5, 5 mM EDTA, 1% TRITON™ X-100, 0.02% NaN3, 20 nM microcystin, Sigma phosphatase inhibitor cocktails 1 and 2, Roche protease inhibitor cocktail and 2 mM PMSF). After contacting cells with lysis buffer, the solution was briefly sonicated. Lysates were cleared by centrifugation, resolved by SDS-PAGE, transferred to nitrocellulose and immunoblotted using antibodies to phospho-p70S6K T389, phospho-4EBP1 T37/46, phospho-4EBP1 S65, and β-actin (Cell Signaling Technologies).

SGK1 phosphorylation = SGK1 phosphorylation in mpkCCD cells (mobility shift immunoblot); format: cell-based; conditions: at a concentration of 0.3 μM
[13] = test system: ENaC-dependent Na+ current
[14] = Metabolic stability in microsome and cellular assays; format: in vitro ADME
SGK1 pS422 = test: HM (pS422) phosphorylation of flag-tagged SGK1 in HEK293 cells; format: cell-based, Human; conditions: insulin, FIG. 28C
[15] = Genetic toxicology (mini-Ames test)
[16] = test system: myristolated-Akt transgenic thymocytes tumors; test: Akt murine allograft tumor model; format: in vivo, NOD/SCID mice
Tolerability in rats = format: in vivo; conditions: 10, 30 or 100 mg/kg, four times or twice daily, p.o.

## CC(C)n1nc(-c2cc3cc(O)ccc3[nH]2)c2c(N)ncnc21 [PP242]
[1]
  phosphorylation of Akt and its substrates: partially inhibited
[2]
  insulin stimulated phosphorylation of Akt at S473 and T308: inhibit insulin stimulated phosphorylation of Akt at S473
p70S6K phosphorylation
  p70S6K phosphorylation: eliminated the band detected by anti-phospho p70S6K antibody
[3]
  PI3K signaling (PIP3 accumulation): had no significant effect
[4]; SIN1−/− MEFs
  phosphorylation of Akt T308: has no effect
[4]; wild-type MEFs
  phosphorylation of Akt at S473 and T308: inhibits the phosphorylation of Akt at both S473 and T308
Tolerability in mice
  tolerability: tolerated
[5]
  cap-dependent translation: inhibit cap-dependent translation
[6]
  anti-CD3 mediated phosphorylation of Akt-S473: inhibits
  anti-CD3 mediated phosphorylation of S6: inhibits
[7]
  mTORC2/AKT and mTORC1 signaling in B-ALL: completely inhibits mTORC2/AKT and mTORC1 signaling
[8]
  clearance: moderate
  volume of distribution: good
[8]; po
  oral bioavailability (F %): 30-70%
[9]; FIG. 29B
  T1/2 of effect on Na+ current: approximately 15 minutes
[9]; at a concentration of 0.3 μM
  amiloride-sensitive Na+ current: completely abolished
[9]; mpkCCD cells
  aldosterone-induced Na+ current: completely blocked aldosterone-induced current
4EBP1 binding to eIF-4E
  retention of 4EBP1 on eIF-4E (m7GTP pull-down): caused a greater retention of 4EBP1
[10]
  phosphorylation of 4EBP1 at S65: fully inhibits
  phosphorylation of 4EBP1 at T70: neither rapamycin nor TORKinib affect
[10]; listed as TORKinib
  phosphorylation of 4EBP1 at T37/46: fully inhibits; also recorded: able to inhibit
[11]; all tissues examined
  S6 phosphorylation: equally inhibited
  phosphorylation of 4EBP1 on T37/46 and S65: effective at blocking
[11]; fat and liver, i.p., insulin stimulated mice
  phosphorylation of Akt at S473 and T308: completely inhibit
[11]; skeletal muscle
  phosphorylation of Akt: only partially able to inhibit
[12]
  phosphorylation of p70S6K and 4EBP1: more complete inhibitor of 4EBP1 phosphorylation under the conditions tested than rapamycin
SGK1 phosphorylation
  phosphorylation of SGK1: completely abolished
[13]
  toxic effect of prolonged treatment: diminishes electrical resistance and causes morphological changes
[14]
  metabolic stability: metabolically stable
SGK1 pS422
  pS422-SGK1 band: abrogated
[15]
  genetic toxicology (mini-Ames test): clean profile
[16]; PP242 100 mg/kg, rapamycin 5 mg/kg, gavage daily, 20 days
  tumor growth: no tumor growth
[16]; after 20 days of treatment
  body weight: maintained body weight
Tolerability in rats
  tolerability: tolerated
